Experiments:
Nalm-6 luc = assay: CAR-T cell killing assay (luciferase viability of tumor cells)
[1] = test system: NALM6.GFP.LUC.CD19 target cells; assay: Serial killing assay; assay type: cell-based, human
Protocol: CD19 CAR-T cells were thawed in RPMI media supplemented with HEPES, Penicillin/Streptomycin/L-Glutamine and 10% FBS and rested overnight. The following day, drugs were serially diluted and prepared in 96-well plates. Rested T cells were counted and normalized so that 25,000 or 8,333 T cells were plated with 25,000 NALM6.GFP.LUC.CD19 target cells (1:1 or 1:3 Effector:Target ratio) in the prepared 96-well plates. At 16 hour post-incubation and every 3-4 days, T cell killing of targets was measured via luciferase detection. D-luciferin substrate was added to the co-culture wells at a final concentration of 0.14 mg/mL and plates were incubated at 37° C. in the dark for 10 minutes. Luminescent signal was read immediately after in a VarioSkan™ LUX microplate reader. T cell-mediated cytotoxicity was calculated as follows: % Cytotoxicity=[1−luciferase signal of (sample of interest/target alone control)]*100. Afterwards, co-cultures were stained with LIVE/DEAD and antibodies against CD4, CD8 and KIP-1 and then washed. Cells were then analyzed and quantified via the Attune NxT flow cytometer. T cells were then repeatedly stimulated with fresh 25,000 target cells, and this process was repeated every 3-4 days.

in vitro = conditions: human
[2] = Clinical pharmacokinetic data converted to in vitro concentrations; conditions: human, in vivo
Excerpt: Given the different potencies of the JAK inhibitors and different pharmacokinetic properties for each drug, it was sought to test each drug at a relevant range of physiological concentrations based on clinical dosing and reported pharmacokinetic data from repeat dose studies. Reported Cmax values in patient sera were converted to in vitro concentrations and adjusted for reported plasma protein binding.

[3] = test system: phospho-STAT panel (pSTAT3/4/5), CD3+ T cells; assay: phospho-STAT induction by IL-6, MesoScale Discovery phospho-STAT panel; assay type: cell-based, human; conditions: for pSTAT3 / pSTAT4 / pSTAT5: CD3+ T cells
Procedure, shortened: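 CD19 CAR-T cells, PBMC or CD3+ T cells, rested overnight, were stimulated at 700,000 cells/well with 100 ng/ml IL6 plus compound for 20 minutes at 37° C. Cells were lysed in Tris buffer and pSTAT3/4/5 measured by MSD electrochemiluminescence immunoassay.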

[4] = test system: NALM6.GFP.LUC.CD19 target cells; assay: Serial killing assay of CAR-T, percent cytotoxicity by luciferase detection; conditions: in vitro at clinically relevant dose levels
Protocol: The percent cytotoxicity to NALM6.GFP.LUC.CD19 target cells was measured by luciferase detection at each round.
In one embodiment, a serial killing assay is a combination of cell killing and how long it takes for CAR T cells to get exhausted under repeated stimulation. In one embodiment, a serial killing assay is a surrogate measure for CAR T cell persistence in vivo.

[5] = E:T ratio 1:3, all doses tested

With `O=C(Nc1nc2cccc(-c3ccc(CN4CCS(=O)(=O)CC4)cc3)n2n1)C1CC1` [filgotinib] the “Mean tumor cell death (%)” value (Nalm-6 luc; E:T ratio 1:1, dose 250 nM) was 96.89%, the “Mean tumor cell death (%)” value (Nalm-6 luc; E:T ratio 1:1, dose 500 nM) was 97.54% and the “Mean tumor cell death (%)” value (Nalm-6 luc; E:T ratio 1:1, dose 1000 nM) was 92.04%. For the same molecule, the “Mean tumor cell death (%)” value (Nalm-6 luc; E:T ratio 1:3, dose 250 nM) was 55.79%, the “Mean tumor cell death (%)” value (Nalm-6 luc; E:T ratio 1:3, dose 500 nM) was 48.50% and the “Mean tumor cell death (%)” value (Nalm-6 luc; E:T ratio 1:3, dose 1000 nM) was 35.36%. The “Mean tumor cell death (%)” value (Nalm-6 luc; E:T ratio 1:9, dose 250 nM) was 20.47%, the “Mean tumor cell death (%)” value (Nalm-6 luc; E:T ratio 1:9, dose 500 nM) was 14.82% and the “Mean tumor cell death (%)” value (Nalm-6 luc; E:T ratio 1:9, dose 1000 nM) was 9.49%. For the same molecule, the T-cell counts ([1]; E:T ratio 1:1) was “increased T-cell counts in a dose-dependent manner”, the serial killing ([1]; E:T ratio 1:1) was “enhanced serial killing” and the T-cell counts [1, 5] was “no negative impacts were observed”. The serial killing [1, 5] was “no negative impacts”, the viability at 0 day, 500 nM (in vitro) was 75% and the viability at 0 day, 1000 nM (in vitro) was 75%. For the same molecule, the viability at 4 day, 500 nM (in vitro) was 61.1%, the viability at 4 day, 1000 nM (in vitro) was 59.9% and the viability at 8 day, 500 nM (in vitro) was 78.9%. For the same molecule, the viability at 8 day, 1000 nM (in vitro) was 85.1%, the viability at 12 day, 500 nM (in vitro) was 91.8% and the viability at 12 day, 1000 nM (in vitro) was 87.7%. For the same molecule, the “PPB adj. in Vitro concentration” value [2] was 1.28 µM, the “clinically relevant dose level (in vitro concentration)” value [2] was ~1 µM and the pSTAT3 ([3]; 100 ng/ml IL-6 + drug 10 uM, 20 min, MSD signal (No stim. 689, IL-6 alone 33641)) was 2169. It also gave a pSTAT4 ([3]; 100 ng/ml IL-6 + drug 10 uM, 20 min, MSD signal (No stim. 1964, IL-6 alone 15405)) of 2121, a pSTAT5 ([3]; 100 ng/ml IL-6 + drug 10 uM, 20 min, MSD signal (No stim. 9210, IL-6 alone 17743)) of 1610 and a pSTAT3 ([3]; IL-6 + drug 0.125 uM, MSD signal (No stim. 689, IL-6 alone 33641)) of 23255. The pSTAT4 ([3]; IL-6 + drug 0.125 uM, MSD signal (No stim. 1964, IL-6 alone 15405)) was 9977, the pSTAT5 ([3]; IL-6 + drug 0.125 uM, MSD signal (No stim. 9210, IL-6 alone 17743)) was 10484 and the pSTAT3 ([3]; IL-6 + drug 0.5 uM, MSD signal (No stim. 689, IL-6 alone 33641)) was 15242. The pSTAT4 ([3]; IL-6 + drug 0.5 uM, MSD signal (No stim. 1964, IL-6 alone 15405)) was 5570, the pSTAT5 ([3]; IL-6 + drug 0.5 uM, MSD signal (No stim. 9210, IL-6 alone 17743)) was 5170 and the pSTAT3 ([3]; IL-6 + drug 1 uM, MSD signal (No stim. 689, IL-6 alone 33641)) was 11163. The pSTAT4 ([3]; IL-6 + drug 1 uM, MSD signal (No stim. 1964, IL-6 alone 15405)) was 4642, the pSTAT5 ([3]; IL-6 + drug 1 uM, MSD signal (No stim. 9210, IL-6 alone 17743)) was 3679 and the pSTAT3 ([3]; IL-6 + drug 5 uM, MSD signal (No stim. 689, IL-6 alone 33641)) was 2667. For the same molecule, the pSTAT4 ([3]; IL-6 + drug 5 uM, MSD signal (No stim. 1964, IL-6 alone 15405)) was 2172, the pSTAT5 ([3]; IL-6 + drug 5 uM, MSD signal (No stim. 9210, IL-6 alone 17743)) was 1797 and the “effect on phosphorylated-STAT-1, STAT-3 and STAT-5 levels” value ([3]; IL-6 stimulation 100 ng/ml, 20 minutes, 10 μM to 0.125 μM) was “reduction of phosphorylated-STAT-1, STAT-3 and STAT-5 levels in a dose-responsive manner”. It also gave a pSTAT3 ([3]; lower dose titration, IL-6 + drug 3.125 nM, MSD signal (No stim. 123, IL-6 alone 5767)) of 4968, a pSTAT4 ([3]; lower dose titration, IL-6 + drug 3.125 nM, MSD signal (No stim. 281, IL-6 alone 3624)) of 3059 and a pSTAT5 ([3]; lower dose titration, IL-6 + drug 3.125 nM, MSD signal (No stim. 324, IL-6 alone 2352)) of 2812. It also gave a pSTAT3 ([3]; lower dose titration, IL-6 + drug 6.25 nM, MSD signal (No stim. 123, IL-6 alone 5767)) of 6740, a pSTAT4 ([3]; lower dose titration, IL-6 + drug 6.25 nM, MSD signal (No stim. 281, IL-6 alone 3624)) of 4324 and a pSTAT5 ([3]; lower dose titration, IL-6 + drug 6.25 nM, MSD signal (No stim. 324, IL-6 alone 2352)) of 2724. The pSTAT3 ([3]; lower dose titration, IL-6 + drug 12.5 nM, MSD signal (No stim. 123, IL-6 alone 5767)) was 6547, the pSTAT4 ([3]; lower dose titration, IL-6 + drug 12.5 nM, MSD signal (No stim. 281, IL-6 alone 3624)) was 3479 and the pSTAT5 ([3]; lower dose titration, IL-6 + drug 12.5 nM, MSD signal (No stim. 324, IL-6 alone 2352)) was 2253. The pSTAT3 ([3]; lower dose titration, IL-6 + drug 25 nM, MSD signal (No stim. 123, IL-6 alone 5767)) was 5737, the pSTAT4 ([3]; lower dose titration, IL-6 + drug 25 nM, MSD signal (No stim. 281, IL-6 alone 3624)) was 3452 and the pSTAT5 ([3]; lower dose titration, IL-6 + drug 25 nM, MSD signal (No stim. 324, IL-6 alone 2352)) was 2020. For the same molecule, the pSTAT3 ([3]; lower dose titration, IL-6 + drug 50 nM, MSD signal (No stim. 123, IL-6 alone 5767)) was 6248, the pSTAT4 ([3]; lower dose titration, IL-6 + drug 50 nM, MSD signal (No stim. 281, IL-6 alone 3624)) was 3208 and the pSTAT5 ([3]; lower dose titration, IL-6 + drug 50 nM, MSD signal (No stim. 324, IL-6 alone 2352)) was 1951. It also gave a pSTAT3 ([3]; lower dose titration, IL-6 + drug 100 nM, MSD signal (No stim. 123, IL-6 alone 5767)) of 5441, a pSTAT4 ([3]; lower dose titration, IL-6 + drug 100 nM, MSD signal (No stim. 281, IL-6 alone 3624)) of 2047 and a pSTAT5 ([3]; lower dose titration, IL-6 + drug 100 nM, MSD signal (No stim. 324, IL-6 alone 2352)) of 1246. For the same molecule, the “effect on CAR T cells in cell killing, serial killing and T cell expansion assays” value [4] was “not accompanied by a detrimental effect on CAR T cells”.
